Columns and labels:
Assay type in all cases: cell-based
PLK1 = target: T1, PLK1 (Homo sapiens, UniProt P53350); test: Luciferase assay for PLK1 in HeLa LgBit (Plk1-HiBit KI) cell line; settings: compound 300 nM, luminescence after 9 hours
T1 construct: endogenous in cells; host or cells: HeLa LgBit (Plk1-HiBit KI): HeLa stably expressing LgBit, with HiBit knocked in at the endogenous Plk1 locus by CRISPR/Cas9
Method: 2. Luciferase Assay for PLK1
(1) Preparation and Culture of HeLa LgBit (Plk1-HiBit KI) Cell Line
A HeLa cell line in which the LgBit vector was transfected and expressed stably was prepared. Then, after constructing gRNA and donor to express the HiBit amino acid sequence behind the C-terminal of the Plk1 gene, which was inherent in the cell, it was inserted into the cell together with a vector capable of expressing CRISPR/Cas9. Only the cells in which the insertion was completed and knock-in had progressed were selected, sub-cultured and used.
(2) Treatment of Compounds of the Present Invention and Method of Luciferase Assay
In the case of HeLa LgBit (Plk1-HiBit KI), the compounds were treated after being released after thymidine block, and the process was as follows. Thymidine (Sigma-Aldrich Cat. No. T9250-5G) was completely dissolved in DW and used in the experiment. For thymidine block, the products were treated with 2 mM of thymidine and then incubated for 24 hours. For release and chemical treatment, the medium was suctioned and washed with 1×PBS. TrypLE™ was added and incubated in 37° C. CO2 incubator for 5 min. Cells neutralized by adding complete media were counted through a counter. For each well of a 96-well culture plate (SPL), 3.3×10^4 cells and a total medium volume of 150 μL were seeded and incubated in a CO2 incubator.
Each cell line was incubated in a CO2 incubator for 18 hours, and Endurazine was added to each well to make up 4% of the total volume. After adding the compound of the present invention in a 96-well white plate (SPL) to a concentration of 300 nM, the wavelength of the plate reader (BMG Labtech, CLARIOstar Plus) was set to […], and then the luminescence was tracked in real time.
In Table 2, Activity represents the ratio of the luminescence value of each Exemplary Compound treatment group to DMSO treatment group (+++: <0.3, ++<0.6, +<0.7).

MRC-5 cell line = test: Cell viability assay for MRC-5 cell line (EZ-Cytox cytotoxicity experiment); settings: Homo sapiens, MRC5, 120 h; MRC-5 normal cell line, highest concentration 10000 nM, 5 days; N.D. = no cytotoxicity until 10 μM; read-out: Activity: IC50 value to MRC-5 cell line, N.D. cells
Method: 4. Cell Viability Assay for MRC-5 Cell Line
(1) Culture of MRC-5 Cell Line
Passage of cultured cells was maintained within P15.
(2) Treatment of Compounds of the Present Invention
Then, it was cultured in 37° C.
(3) Cytotoxicity Experiment
CO2 incubator for 4 hours.

H526 cell line = test: Cell viability assay for NCI-H526 cell line (EZ-Cytox); settings: Homo sapiens, NCI-H526, 120 h; H526 cells, 3-fold dilutions 3000 nM to 0.46 nM, 5 days
Method: (1) Culture of NCI-H526 Cell Line
(2) Treatment of Compounds of the Present Invention and Method of Cell Viability Assay
After treating the compound to each well to make the total volume of 200 μL, it was cultured in a CO2 incubator (Thermo Fisher Science, Cat. No. 4111) for 5 days.
The absorbance of the completely cultured sample was measured by setting the wavelength of a plate reader (BMG Labtech, CLARIOstar Plus) to […], and was measured after shaking for 3 minutes in a plate reader before measurement.
In Table 3, Activity represents IC50 value of each Exemplary Compound treatment group to H526 cell line (A: <30 nM, B: <50 nM, C: <100 nM, D: <200 nM, E: <400 nM).

T1 sequence (P53350 whole entry): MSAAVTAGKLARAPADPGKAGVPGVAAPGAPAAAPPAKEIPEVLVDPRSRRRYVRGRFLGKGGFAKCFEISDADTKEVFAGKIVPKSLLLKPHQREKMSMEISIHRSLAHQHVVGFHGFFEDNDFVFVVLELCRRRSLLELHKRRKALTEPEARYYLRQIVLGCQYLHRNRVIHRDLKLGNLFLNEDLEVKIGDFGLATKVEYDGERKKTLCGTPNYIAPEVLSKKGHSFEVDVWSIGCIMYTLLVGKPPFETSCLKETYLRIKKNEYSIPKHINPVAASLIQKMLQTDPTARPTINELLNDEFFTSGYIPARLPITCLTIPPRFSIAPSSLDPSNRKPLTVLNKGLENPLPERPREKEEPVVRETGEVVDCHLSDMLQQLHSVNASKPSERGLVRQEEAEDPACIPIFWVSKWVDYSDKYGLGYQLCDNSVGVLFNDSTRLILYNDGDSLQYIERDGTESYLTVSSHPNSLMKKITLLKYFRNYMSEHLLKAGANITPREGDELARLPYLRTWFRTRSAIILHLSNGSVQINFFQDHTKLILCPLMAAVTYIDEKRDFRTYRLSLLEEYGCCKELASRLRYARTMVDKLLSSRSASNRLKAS

| Compound | Activity: ratio of the luminescence value of each Exemplary Compound treatment group to DMSO treatment group (PLK1) | IC50 (MRC-5 cell line) | IC50 (H526 cell line) |
| --- | --- | --- | --- |
| COc1cc(C(=O)NC2CCN(C(=O)CCCNc3ccc(C(=O)NC4CCC(=O)NC4=O)cc3)CC2)c(F)cc1Nc1ncc2c(n1)N(C1CCCC1)CC(F)(F)C(=O)N2C (stereo not drawn) [Compound 1, 4-((9-cyclopentyl-7,7-difluoro-5-methyl-6-oxo-6,7,8,9-tetrahydro-5H-pyrimido[4,5-b][1,4]diazepin-2-yl)amino)-N-(1-(4-((4-((2,6-dioxopiperidin-3-yl)carbamoyl)phenyl)amino)butanoyl)piperidin-4-yl)-2-fluoro-5-methoxybenzamide] | ++ (++<0.6) | > 10 µM | < 0.05 µM |
| COc1cc(C(=O)NC2CCN(C(=O)CCN3CCN(c4cccc(C(=O)NC5CCC(=O)NC5=O)c4F)CC3)CC2)ccc1Nc1ncc2c(n1)N(C1CCCC1)CC(F)(F)C(=O)N2C (stereo not drawn) [Compound 6, 3-(4-(3-(4-(4-((9-cyclopentyl-7,7-difluoro-5-methyl-6-oxo-6,7,8,9-tetrahydro-5H-pyrimido[4,5-b][1,4]diazepin-2-yl)amino)-3-methoxybenzamido)piperidin-1-yl)-3-oxopropyl)piperazin-1-yl)-N-(2,6-dioxopiperidin-3-yl)-2-fluorobenzamide] | ++ (++<0.6) | > 10 µM | < 0.05 µM |
| COc1cc(C(=O)NN2CCC(CN3CCN(c4cccc(C(=O)NC5CCC(=O)NC5=O)c4)CC3)CC2)ccc1Nc1ncc2c(n1)N(C1CCCC1)CC(F)(F)C(=O)N2C (stereo not drawn) [Compound 9, 4-((9-cyclopentyl-7,7-difluoro-5-methyl-6-oxo-6,7,8,9-tetrahydro-5H-pyrimido[4,5-b][1,4]diazepin-2-yl)amino)-N-(4-((4-(3-((2,6-dioxopiperidin-3-yl)carbamoyl)phenyl)piperazin-1-yl)methyl)piperidin-1-yl)-3-methoxybenzamide] | ++ (++<0.6) | > 10 µM | < 0.05 µM |
| COc1cc(C(=O)NN2CCC(CCN3CCN(c4cccc(C(=O)NC5CCC(=O)NC5=O)c4)CC3)CC2)ccc1Nc1ncc2c(n1)N(C1CCCC1)CC(F)(F)C(=O)N2C (stereo not drawn) [Compound 10, 4-((9-cyclopentyl-7,7-difluoro-5-methyl-6-oxo-6,7,8,9-tetrahydro-5H-pyrimido[4,5-b][1,4]diazepin-2-yl)amino)-N-(4-(2-(4-(3-((2,6-dioxopiperidin-3-yl)carbamoyl)phenyl)piperazin-1-yl)ethyl)piperidin-1-yl)-3-methoxybenzamide] | ++ (++<0.6) | > 10 µM | < 0.03 µM |
| COc1cc(C(=O)NN2CCC(CCN3CCN(c4cccc(C(=O)NC5CCC(=O)NC5=O)c4)CC3)C2)ccc1Nc1ncc2c(n1)N(C1CCCC1)CC(F)(F)C(=O)N2C (stereo not drawn) [Compound 11, 4-((9-cyclopentyl-7,7-difluoro-5-methyl-6-oxo-6,7,8,9-tetrahydro-5H-pyrimido[4,5-b][1,4]diazepin-2-yl)amino)-N-(3-(2-(4-(3-((2,6-dioxopiperidin-3-yl)carbamoyl)phenyl)piperazin-1-yl)ethyl)pyrrolidin-1-yl)-3-methoxybenzamide] | ++ (++<0.6) | > 10 µM | < 0.03 µM |
| COc1cc(C(=O)NC2CCN(C(=O)CCN3CCN(c4ccc(NC5CCC(=O)NC5=O)cc4)CC3)CC2)ccc1Nc1ncc2c(n1)N(C1CCCC1)CC(F)(F)C(=O)N2C (stereo not drawn) [Compound 13, 4-((9-cyclopentyl-7,7-difluoro-5-methyl-6-oxo-6,7,8,9-tetrahydro-5H-pyrimido[4,5-b][1,4]diazepin-2-yl)amino)-N-(1-(3-(4-(4-((2,6-dioxopiperidin-3-yl)amino)phenyl)piperazin-1-yl)propanoyl)piperidin-4-yl)-3-methoxybenzamide] | +++ (+++: <0.3) | > 10 µM | < 0.03 µM |
| COc1cc(C(=O)NC2CCN(C(=O)CCN3CCN(c4cccc(NC5CCC(=O)NC5=O)c4)CC3)CC2)ccc1Nc1ncc2c(n1)N(C1CCCC1)CC(F)(F)C(=O)N2C (stereo not drawn) [Compound 14, 4-((9-cyclopentyl-7,7-difluoro-5-methyl-6-oxo-6,7,8,9-tetrahydro-5H-pyrimido[4,5-b][1,4]diazepin-2-yl)amino)-N-(1-(3-(4-(3-((2,6-dioxopiperidin-3-yl)amino)phenyl)piperazin-1-yl)propanoyl)piperidin-4-yl)-3-methoxybenzamide] | ++ (++<0.6) | > 10 µM | < 0.03 µM |
| COc1cc(C(=O)NC2CCN(C(=O)CCN3CCN(c4cccc(N(C)C5CCC(=O)NC5=O)c4)CC3)CC2)ccc1Nc1ncc2c(n1)N(C1CCCC1)CC(F)(F)C(=O)N2C (stereo not drawn) [Compound 15, 4-((9-cyclopentyl-7,7-difluoro-5-methyl-6-oxo-6,7,8,9-tetrahydro-5H-pyrimido[4,5-b][1,4]diazepin-2-yl)amino)-N-(1-(3-(4-(3-((2,6-dioxopiperidin-3-yl)(methyl)amino)phenyl)piperazin-1-yl)propanoyl)piperidin-4-yl)-3-methoxybenzamide] | ++ (++<0.6) | > 10 µM | < 0.05 µM |
| COc1cc(C(=O)NC2CCN(C(=O)CCN3CCN(c4ccc(N(C)C5CCC(=O)NC5=O)cc4F)CC3)CC2)ccc1Nc1ncc2c(n1)N(C1CCCC1)CC(F)(F)C(=O)N2C (stereo not drawn) [Compound 16, 4-((9-cyclopentyl-7,7-difluoro-5-methyl-6-oxo-6,7,8,9-tetrahydro-5H-pyrimido[4,5-b][1,4]diazepin-2-yl)amino)-N-(1-(3-(4-(4-((2,6-dioxopiperidin-3-yl)(methyl)amino)-2-fluorophenyl)piperazin-1-yl)propanoyl)piperidin-4-yl)-3-methoxybenzamide] | +++ (+++: <0.3) | > 10 µM | < 0.03 µM |
| COc1cc(C(=O)NN2CCC(CN3CCN(c4ccc(NC5CCC(=O)NC5=O)cc4F)CC3)CC2)ccc1Nc1ncc2c(n1)N(C(C)C)CC(F)(F)C(=O)N2C (stereo not drawn) [Compound 17, 4-((7,7-difluoro-9-isopropyl-5-methyl-6-oxo-6,7,8,9-tetrahydro-5H-pyrimido[4,5-b][1,4]diazepin-2-yl)amino)-N-(4-((4-(4-((2,6-dioxopiperidin-3-yl)amino)-2-fluorophenyl)piperazin-1-yl)methyl)piperidin-1-yl)-3-methoxybenzamide] | ++ (++<0.6) | > 10 µM | < 0.05 µM |
| COc1cc(C(=O)NN2CCC(CN3CCN(c4c(F)cc(NC5CCC(=O)NC5=O)cc4F)CC3)CC2)ccc1Nc1ncc2c(n1)N(C(C)C)CC(F)(F)C(=O)N2C (stereo not drawn) [Compound 18, 4-((7,7-difluoro-9-isopropyl-5-methyl-6-oxo-6,7,8,9-tetrahydro-5H-pyrimido[4,5-b][1,4]diazepin-2-yl)amino)-N-(4-((4-(4-((2,6-dioxopiperidin-3-yl)amino)-2,6-difluorophenyl)piperazin-1-yl)methyl)piperidin-1-yl)-3-methoxybenzamide] | + (+<0.7) | > 10 µM | < 0.03 µM |
| COc1cc(C(=O)NN2CCC(CN3CCN(c4ccc(NC5CCC(=O)NC5=O)cc4Cl)CC3)CC2)ccc1Nc1ncc2c(n1)N(C(C)C)CC(F)(F)C(=O)N2C (stereo not drawn) [Compound 19, N-(4-((4-(2-chloro-4-((2,6-dioxopiperidin-3-yl)amino)phenyl)piperazin-1-yl)methyl)piperidin-1-yl)-4-((7,7-difluoro-9-isopropyl-5-methyl-6-oxo-6,7,8,9-tetrahydro-5H-pyrimido[4,5-b][1,4]diazepin-2-yl)amino)-3-methoxybenzamide] | + (+<0.7) | > 10 µM | < 0.05 µM |

From patent US20250101025A1, “NOVEL PLK1 DEGRADATION INDUCING COMPOUND” (UPPTHERA, INC., priority 2021, published 2025)
